Patent publication US12697330B2, “Therapeutic methods using vadadustat” (Akebia Therapeutics, Inc., priority 2021, dated 2026)

Tested on: erythropoietin (EPO)
Experiment: Phase 1b study: pharmacodynamics, Baseline-unadjusted serum EPO concentration
Format: in vivo, human
Description: PK and EPO Sample. For each vadadustat treatment group, blood samples for vadadustat PK (and its metabolites) and EPO were collected at the following time points: Day 1: predose, and at 1, 2, 3, 4, 5, 8, and 11 hours post dose; Day 2: 24 hours (−2 hours) post Day 1 dose; Day 6: blood sample for EPO analysis only was collected predose on Day 6; Day 8: predose, and at 1, 2, 3, 4, 5, 8, 11 hours post dose, Day 10 or EOT: predose. For the ESA treatment group, blood samples for analysis of EPO were collected at the following time points: Day 1: predose, and at 0.25, 1, 2, 3, 4, 5, 8, and 11 hours post dose; Day 2: 24 hours (−2 hours) post Day 1 dose.
PD Sampling. For all vadadustat and ESA treatment groups, in addition to EPO, blood samples for Hb, reticulocytes and iron indices for PD analyses were collected on Day 1, Day 6 and Day 10. Hepcidin were collected predose on Day 1, Day 6, and Day 10 for PD analysis.
Secondary Endpoints. For each treatment group, PD parameters included, but were not limited to, as deemed appropriate: hepcidin, erythropoietin (EPO), iron indices (iron, ferritin, total iron-binding capacity [TIBC], TSAT), Hb, and reticulocytes.
The summary of serum concentration of Baseline-unadjusted EPO by time for the vadadustat treatment groups in the PK population are presented in FIGS. 1a-11b and FIGS. 12a-12b. The summary of PD parameters for Baseline-unadjusted serum EPO concentration for vadadustat treatment groups by dosing days for the PK population are summarized in Table 2.

| Structure (SMILES) | Baseline-Unadjusted serum EPO Tmax, Median (Vada 600 mg QD, Day 1) | Baseline-unadjusted serum EPO AUC0-11, Mean (SD) (Vada 600 mg QD, Day 1) | Baseline-Unadjusted serum EPO Tmax, Median (Vada 600 mg QD, Day 8) | Baseline-unadjusted serum EPO AUC0-11, Mean (SD) (Vada 600 mg QD, Day 8 (AUClast)) | Baseline-Unadjusted serum EPO Tmax, Median (Vada 750 mg QD, Day 1) | Baseline-unadjusted serum EPO AUC0-11, Mean (SD) (Vada 750 mg QD, Day 1) | Baseline-Unadjusted serum EPO Tmax, Median (Vada 750 mg QD, Day 8) | Baseline-unadjusted serum EPO AUC0-11, Mean (SD) (Vada 750 mg QD, Day 8 (AUClast)) | Baseline-Unadjusted serum EPO Tmax, Median (Vada 900 mg QD, Day 1) | Baseline-unadjusted serum EPO AUC0-11, Mean (SD) (Vada 900 mg QD, Day 1) | Baseline-Unadjusted serum EPO Tmax, Median (Vada 900 mg QD, Day 8) | Baseline-unadjusted serum EPO AUC0-11, Mean (SD) (Vada 900 mg QD, Day 8 (AUClast)) | EPO response (600, 750, 900 mg QD, Day 1 and Day 8) | EPO after administration versus dose (Day 8) |
| --- | --- | --- | --- | --- | --- | --- | --- | --- | --- | --- | --- | --- | --- | --- |
| O=C(O)CNC(=O)c1ncc(-c2cccc(Cl)c2)cc1O [Compound 1, {[5-(3-chlorophenyl)-3-hydroxypyridine-2-carbonyl]amino}acetic acid] | 10.09 h | 319 (150) h · mU/mL | 4.50 h | 410 (286) h · mU/mL | 10.94 h | 569 (623) h · mU/mL | 5.01 h | 677 (533) h · mU/mL | 10.00 h | 455 (438) h · mU/mL | 10.00 h | 981 (1854) h · mU/mL |  |  |
| O=C(O)CNC(=O)c1ncc(-c2cccc(Cl)c2)cc1O [vadadustat, {[5-(3-chlorophenyl)-3-hydroxypyridine-2-carbonyl]amino}acetic acid] |  |  |  |  |  |  |  |  |  |  |  |  | variable EPO response | dose-dependent increase of EPO |
